What was measured:
CatSper1^−/− sperm = experiment: Ca2+ imaging of Fluo-4 loaded sperm, CatSper1-/- mutant; assay type: cell-based, mouse
Experimental: (§1) For Ca^2+ imaging, sperm were prepared in HS medium (Wennemuth, et al. (2000), J Biol Chem 275, 21210-7) and loaded with 10 μM Fluo-4-AM and 0.05% Pluronic F-127 for 30 min. at room temperature. Washed cells were seeded onto Cell-Tak coated cover slips. Attached motile sperm were imaged in nonconfocal mode to avoid motion-induced fluorescence change artifacts. The 488 nm wavelength beam of an Argon-Krypton laser was used for excitation and fluorescence emission was collected at 512 nm (Zeiss LSM 410).
(§2) Wild-type and mutant sperm were loaded with Fluo-4 and their fluorescence measured by single photon confocal microscopy.

[1] = test system: caudal epididymal wild-type sperm; experiment: Ca2+ imaging of Fluo-4 loaded sperm, wild-type; assay type: cell-based, mouse
Experimental: as §1, §2

`Nc1nc2c(nc(Br)n2[C@@H]2O[C@@H]3COP(=O)(O)O[C@H]3[C@H]2O)c(=O)[nH]1` [8-Br-cGMP] was tested, and the “cyclic nucleotide-induced Ca^2+ influx in mutant sperm” value (CatSper1^−/− sperm) was “neither cAMP nor cGMP elicited significant Ca^2+ influx” and the “sperm head and tail [Ca^2+]i change (Fluo-4 fluorescence)” value ([1]; wild-type sperm, 1 mM membrane-permeant cyclic nucleotide in bath) was “initiated Ca^2+ influx in sperm”.

In the case of `CC(=O)[C@H]1CC[C@H]2[C@@H]3CCC4=CC(=O)CC[C@]4(C)[C@H]3CC[C@]12C` [progesterone], the “Ca^2+ influx (control for dye loading), mutant sperm” value (CatSper1^−/− sperm) is reported as “initiated a large Ca^2+ influx” and the “Ca^2+ influx (control for dye loading), wild-type sperm” value ([1]; wild-type sperm) is reported as “initiated a large Ca^2+ influx”.

With `O=C([O-])O.[Na+]` [sodium bicarbonate] the “[Ca^2+]i increase on addition to the bath” value ([1]; 20 mM in bath) was “induced an increase in [Ca^2+]i that was smaller than that observed with cyclic AMP or GMP”.

In the case of `CN[C@@H]1C[C@H]2O[C@@](C)([C@@H]1OC)n1c3ccccc3c3c4c(c5c6ccccc6n2c5c31)C(=O)NC4` [staurosporine], the “block of cyclic AMP and cyclic GMP induced [Ca^2+]i increase” value ([1]; sperm incubated with 1 μM, 10 minutes) is reported as “not blocked”.

— patent US8852860B2, “Sperm-specific cation channel, CatSper1 and uses therefor” (Children's Medical Center Corporation, priority 2001, dated 2014)
